The values below come from patent US6063562A (priority 1995, dated 2000).

The test system of one assay is wild-type HIV-1. The conditions noted are these: read-out: IC50 (50% inhibitory concentration), MT-4 cells, cited from earlier work.
The subject of assay [1] is AZT-resistant strain derived from wild-type HIV-1. The conditions noted are these: read-out: IC50 (50% inhibitory concentration); second passage of the AZT-resistant progeny, MT-4 cells; cited from earlier work.
Assay [2] concerns the target HIV-1 protease, wild type, expressed as part of truncated HIV-1 polyprotein (Human immunodeficiency virus type 1 group M subtype B, UniProt P04585). The class given is cell-based.
From the text: Plasmid pART-2 was digested with Bgl II and Eco RI to obtain a nucleotide sequence coding for a portion of the HIV-1 polyprotein (i.e., the HIV-1 protease protein, the HIV-1 reverse transcriptase protein and a portion of the HIV-1 integrase protein). The isolated 2.3 kb fragment was then inserted into the pTrcHisC plasmid (obtained from Invitrogen, San Diego, Calif.), which had previously been digested with the same restriction enzymes, to yield the plasmid pL124.23. The pL124.23 plasmid contains upstream sequences coding for a series of six histidine residues fused to a gene 10 segment, all of which are in frame with the inserted fragment. An enterokinase cleavage recognition site is also located between gene 10 and the truncated polyprotein. The inserted sequences, as well as the described upstream sequences are all under control of a T7 promoter. The T7 polymerase in the host cell (Top 10, Invitrogen) is inducible with IPTG.

Structures are written as SMILES. Where two headings read alike, the source gives them in different places.

Regarding `Nc1nc(=O)n([C@@H]2CS[C@H](CO)O2)cc1F` [FTC], the IC50 in the assay with wild-type HIV-1 (fourth passage of the wild-type progeny) was more than 50 µM; in the assay with wild-type HIV-1 (passage 6 virus, tested at higher compound concentrations), more than 250 µM; in assay [1], more than 50 µM.
For `CC(C)(C)NC(=O)[C@@H]1CN(Cc2cccnc2)CCN1C[C@@H](O)C[C@@H](Cc1ccccc1)C(=O)N[C@H]1c2ccccc2C[C@H]1O` [L-735,524], in assay [2], the “processing of the polyprotein by HIV protease” value is “did not allow processing of the polyprotein”.
